Active and inactive are the calls of the source.
Tests used:
[1] = Trypanosoma cruzi growth suppression in host cells – NIH3T3 host cells, beta-gal luminescence, confirmation (AID 2044); format: functional, cell-based;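 further: intracellular parasites grown in NIH/3T3 mouse fibroblasts as host cells; luminescent beta-galactosidase reporter signal from transgenic T. cruzi replicating inside host cells; inhibitors lower the luminescence signal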
[2] = NIH3T3 cell viability loss – ATP luminescence, mouse fibroblasts, counter-screen, dose response (AID 2010); format: functional, cell-based;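 further: cells exposed to compound for about 90 hours before reading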
[3] = target: T1, Replicative DNA helicase DnaB (Mycobacterium tuberculosis, UniProt P9WMR3); assay: DnaB intein splicing inhibitors, dose response, biochemical, cell-free fluorescence (AID 449749); format: functional
T1 sequence (P9WMR3 whole entry): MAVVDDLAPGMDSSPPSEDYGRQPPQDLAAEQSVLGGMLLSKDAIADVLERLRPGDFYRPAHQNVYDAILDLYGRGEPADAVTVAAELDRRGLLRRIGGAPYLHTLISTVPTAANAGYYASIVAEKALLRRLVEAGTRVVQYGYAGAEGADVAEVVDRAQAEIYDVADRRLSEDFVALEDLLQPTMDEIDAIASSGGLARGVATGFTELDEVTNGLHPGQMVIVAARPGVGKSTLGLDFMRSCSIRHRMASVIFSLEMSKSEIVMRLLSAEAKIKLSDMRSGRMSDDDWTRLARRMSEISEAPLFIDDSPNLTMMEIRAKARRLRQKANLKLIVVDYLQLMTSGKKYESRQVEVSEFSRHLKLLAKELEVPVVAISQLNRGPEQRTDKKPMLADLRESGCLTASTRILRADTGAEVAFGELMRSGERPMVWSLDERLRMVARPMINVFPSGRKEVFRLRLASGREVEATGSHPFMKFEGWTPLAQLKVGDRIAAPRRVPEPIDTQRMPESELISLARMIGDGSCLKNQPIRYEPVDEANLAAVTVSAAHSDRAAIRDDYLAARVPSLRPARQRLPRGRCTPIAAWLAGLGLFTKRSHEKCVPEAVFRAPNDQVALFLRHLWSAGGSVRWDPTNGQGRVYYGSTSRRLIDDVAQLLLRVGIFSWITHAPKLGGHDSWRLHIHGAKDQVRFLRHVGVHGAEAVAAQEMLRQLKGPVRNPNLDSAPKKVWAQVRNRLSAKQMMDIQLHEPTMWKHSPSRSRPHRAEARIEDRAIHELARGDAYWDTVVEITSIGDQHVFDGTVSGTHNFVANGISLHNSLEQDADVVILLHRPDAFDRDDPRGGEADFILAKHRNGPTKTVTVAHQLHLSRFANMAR

Protein RecA = target: T2, Protein RecA (Mycobacterium tuberculosis, UniProt P9WHJ3); assay: Fluorescence Cell-Free Homogeneous Dose Retest to Identify Inhibitors of RecA-Intein Splicing Activity. [Related pubchem assays (depositor defined):AID2097, AID2223, AID489010, AID492950]; format: functional
T2 sequence (P9WHJ3 whole entry): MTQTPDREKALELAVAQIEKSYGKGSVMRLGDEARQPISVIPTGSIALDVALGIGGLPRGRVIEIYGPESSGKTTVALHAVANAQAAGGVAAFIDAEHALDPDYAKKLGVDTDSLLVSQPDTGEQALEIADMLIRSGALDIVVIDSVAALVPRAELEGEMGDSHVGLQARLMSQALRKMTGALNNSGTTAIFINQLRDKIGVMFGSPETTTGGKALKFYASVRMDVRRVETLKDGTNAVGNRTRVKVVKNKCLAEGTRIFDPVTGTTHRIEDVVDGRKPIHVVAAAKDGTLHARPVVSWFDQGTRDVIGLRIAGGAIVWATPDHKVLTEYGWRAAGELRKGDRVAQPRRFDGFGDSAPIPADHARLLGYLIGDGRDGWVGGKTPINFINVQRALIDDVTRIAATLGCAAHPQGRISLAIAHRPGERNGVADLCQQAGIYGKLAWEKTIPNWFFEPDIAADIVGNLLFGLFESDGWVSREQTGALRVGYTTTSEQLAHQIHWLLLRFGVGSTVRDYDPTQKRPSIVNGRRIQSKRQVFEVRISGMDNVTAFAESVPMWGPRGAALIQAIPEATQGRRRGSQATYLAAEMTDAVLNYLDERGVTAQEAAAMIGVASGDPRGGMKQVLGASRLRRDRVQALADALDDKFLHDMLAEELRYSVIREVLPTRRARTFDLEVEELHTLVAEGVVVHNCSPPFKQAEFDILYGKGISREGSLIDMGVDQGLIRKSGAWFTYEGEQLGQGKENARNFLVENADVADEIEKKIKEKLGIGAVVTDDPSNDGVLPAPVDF

[4] = test system: Streptococcus sp. 'group A'; assay: Streptococcus pyogenes SK(-)GAS viability under kanamycin – luminescence, BacTiterGlo, confirmation, counter-screen for streptokinase expression inhibitor project, dose response (AID 1900); format: functional, organism-based
Streptokinase A = target: T3, Streptokinase A (Streptococcus pyogenes serotype M1, UniProt P10520); assay: viability-normalized secreted streptokinase activity reduction – plasminogen activation absorbance, OD405, dose response (AID 1914); format: functional, Streptococcus pyogenes M1 GAS;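 further: secreted streptokinase activity via plasminogen activation per viability signal from cell pellet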
T3 sequence (P10520 whole entry): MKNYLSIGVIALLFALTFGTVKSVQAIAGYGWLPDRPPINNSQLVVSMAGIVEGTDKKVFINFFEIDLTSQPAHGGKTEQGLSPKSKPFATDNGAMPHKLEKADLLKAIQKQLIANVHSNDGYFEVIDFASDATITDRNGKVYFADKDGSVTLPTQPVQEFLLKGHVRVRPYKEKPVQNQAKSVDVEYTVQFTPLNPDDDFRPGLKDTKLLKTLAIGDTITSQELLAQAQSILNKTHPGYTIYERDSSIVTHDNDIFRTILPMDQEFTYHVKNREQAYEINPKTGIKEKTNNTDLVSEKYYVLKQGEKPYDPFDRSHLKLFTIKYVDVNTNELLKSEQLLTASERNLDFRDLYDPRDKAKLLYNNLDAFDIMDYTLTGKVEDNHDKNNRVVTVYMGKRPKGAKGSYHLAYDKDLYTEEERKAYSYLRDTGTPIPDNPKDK

Streptococcus = assay: GAS UMAA2166 growth inhibition – luminescence, BacTiterGlo, counter-screen for streptokinase expression inhibitor project, dose response (AID 1915); format: functional, organism-based;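 further: potency for reduction of bacterial viability or growth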
Cytochrome P450 2D6 = Cytochrome P450 2D6 (Homo sapiens, UniProt P10635);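 further: CYP2D6 member of a cytochrome P450 panel assay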
Cytochrome P450 3A4 = Cytochrome P450 3A4 (Homo sapiens, UniProt P08684);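 further: CYP3A4 tested as one member of a cytochrome P450 panel screen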
Cytochrome P450 2C9 = Cytochrome P450 2C9 (Homo sapiens, UniProt P11712)
[5] = target: T4, Heat shock factor protein 1 (Mus musculus, UniProt P38532); assay: decrease of HSF1-responsive luciferase luminescence – cell-based, NIH3T3, dose retest, confirmation (AID 2382); format: functional;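 further: NIH3T3 fibroblasts with HSF1-driven luciferase reporter stressed by proteasome inhibitor MG132; luminescence from HSF1-driven luciferase expression after 8 hours of MG132 stress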
T4 sequence (P38532 whole entry): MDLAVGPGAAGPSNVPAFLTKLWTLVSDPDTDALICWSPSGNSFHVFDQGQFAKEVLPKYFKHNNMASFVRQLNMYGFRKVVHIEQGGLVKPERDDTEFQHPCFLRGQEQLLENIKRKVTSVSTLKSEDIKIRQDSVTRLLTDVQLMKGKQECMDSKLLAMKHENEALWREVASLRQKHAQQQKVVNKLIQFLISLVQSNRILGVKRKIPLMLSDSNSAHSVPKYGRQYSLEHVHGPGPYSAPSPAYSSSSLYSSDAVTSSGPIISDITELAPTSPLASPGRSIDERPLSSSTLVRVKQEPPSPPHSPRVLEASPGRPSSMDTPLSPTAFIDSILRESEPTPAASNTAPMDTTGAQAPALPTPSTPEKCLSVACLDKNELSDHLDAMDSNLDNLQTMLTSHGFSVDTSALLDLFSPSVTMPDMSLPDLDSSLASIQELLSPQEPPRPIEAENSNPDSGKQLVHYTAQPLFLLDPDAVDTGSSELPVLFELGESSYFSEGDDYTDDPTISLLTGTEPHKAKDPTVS

[6] = reduction of Shn3 3'UTR-driven luciferase in osteoblasts – cell-based, Clone20 osteoblasts, firefly luciferase, cherry-picked, dose response (AID 624132); format: functional;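 further: firefly luciferase luminescence from reporter carrying the Shn3 3'UTR in osteoblasts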
[7] = non-specific 3'UTR reporter inhibition in Clone20-Shn3RL – cell-based, Renilla luciferase, cherry-picked, counter-screen for Shn3 inhibitor project, dose response (AID 624133); format: functional
[8] = target: FAD-linked sulfhydryl oxidase ALR (Homo sapiens, UniProt P55789); assay: ALR-catalysed DTT oxidation blockers – biochemical, H2O2 detection, luminescence, cherry-pick, dose response (AID 493248)
Cytochrome P450 2C19 = Cytochrome P450 2C19 (Homo sapiens, UniProt P33261); assay: Cytochrome panel assay with activity outcomes. Panel member name: p450-cyp2c19 Compounds with AC50 equal or less than 10 uM are considered active; format: functional; conditions: read-out: AC50
[9] = Luminescence Cell-Based Dose Response HTS to Identify Activators of Luciferase Translation or Activity in H4 […] Cells. [Related pubchem assays: 1829 (Project Summary), 1814 (Primary HTS)]; format: functional
H4 = assay: Luminescence Cell-Based Dose Response HTS to Identify Activators of 5'UTR Stem-Loop Driven Prion Protein mRNA Translation in H4 Neuroglioblastoma Cells. [Related pubchem assays: 1829 (Project Summary), 1814 (Primary HTS)]; format: functional; conditions: Homo sapiens

Cytochrome P450 3A4, sequence (P08684 whole entry): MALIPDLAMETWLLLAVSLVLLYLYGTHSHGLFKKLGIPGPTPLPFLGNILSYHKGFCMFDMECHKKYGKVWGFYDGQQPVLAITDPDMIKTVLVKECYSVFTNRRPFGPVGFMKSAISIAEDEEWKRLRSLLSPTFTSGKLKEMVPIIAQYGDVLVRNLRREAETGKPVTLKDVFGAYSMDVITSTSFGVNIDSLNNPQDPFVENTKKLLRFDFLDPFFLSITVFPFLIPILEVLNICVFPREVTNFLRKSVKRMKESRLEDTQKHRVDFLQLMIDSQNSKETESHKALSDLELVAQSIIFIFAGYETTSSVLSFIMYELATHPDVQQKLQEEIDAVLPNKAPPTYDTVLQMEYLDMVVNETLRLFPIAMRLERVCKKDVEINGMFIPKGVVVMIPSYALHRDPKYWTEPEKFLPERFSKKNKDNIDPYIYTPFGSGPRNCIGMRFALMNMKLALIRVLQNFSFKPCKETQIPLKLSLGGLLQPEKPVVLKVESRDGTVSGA
Cytochrome P450 2D6, sequence (P10635 whole entry): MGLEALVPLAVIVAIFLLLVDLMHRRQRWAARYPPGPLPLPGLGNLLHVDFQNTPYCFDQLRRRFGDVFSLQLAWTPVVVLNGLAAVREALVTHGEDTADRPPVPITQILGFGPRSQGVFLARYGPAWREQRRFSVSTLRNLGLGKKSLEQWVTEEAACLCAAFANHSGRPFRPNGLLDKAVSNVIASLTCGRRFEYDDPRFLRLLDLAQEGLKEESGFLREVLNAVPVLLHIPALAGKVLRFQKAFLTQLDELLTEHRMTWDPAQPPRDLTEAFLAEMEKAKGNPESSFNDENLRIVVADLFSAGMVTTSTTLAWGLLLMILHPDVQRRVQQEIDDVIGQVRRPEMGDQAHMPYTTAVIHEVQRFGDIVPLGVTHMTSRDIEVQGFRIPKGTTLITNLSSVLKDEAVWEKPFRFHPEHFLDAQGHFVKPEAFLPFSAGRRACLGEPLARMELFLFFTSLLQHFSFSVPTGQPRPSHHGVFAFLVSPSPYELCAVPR
FAD-linked sulfhydryl oxidase ALR, sequence (P55789 whole entry): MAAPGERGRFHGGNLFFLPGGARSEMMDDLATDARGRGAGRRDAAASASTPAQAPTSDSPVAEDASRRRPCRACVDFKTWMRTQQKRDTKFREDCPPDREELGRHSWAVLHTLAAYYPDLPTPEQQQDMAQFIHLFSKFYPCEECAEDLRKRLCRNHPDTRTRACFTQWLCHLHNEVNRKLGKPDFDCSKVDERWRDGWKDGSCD
Cytochrome P450 2C19, sequence (P33261 whole entry): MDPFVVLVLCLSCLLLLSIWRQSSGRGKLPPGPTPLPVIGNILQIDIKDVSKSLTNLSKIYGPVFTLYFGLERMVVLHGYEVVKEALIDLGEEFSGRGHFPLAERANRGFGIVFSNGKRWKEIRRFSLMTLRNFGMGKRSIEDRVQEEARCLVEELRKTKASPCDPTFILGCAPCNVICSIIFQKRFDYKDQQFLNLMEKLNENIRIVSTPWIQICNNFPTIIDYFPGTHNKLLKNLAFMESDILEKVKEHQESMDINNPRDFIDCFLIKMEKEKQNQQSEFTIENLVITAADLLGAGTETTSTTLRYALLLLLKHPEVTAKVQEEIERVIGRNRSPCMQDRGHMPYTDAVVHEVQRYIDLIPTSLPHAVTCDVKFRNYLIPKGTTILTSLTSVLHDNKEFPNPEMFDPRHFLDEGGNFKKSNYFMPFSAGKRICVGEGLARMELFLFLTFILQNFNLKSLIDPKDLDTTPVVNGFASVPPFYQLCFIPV
Cytochrome P450 2C9, sequence (P11712 whole entry): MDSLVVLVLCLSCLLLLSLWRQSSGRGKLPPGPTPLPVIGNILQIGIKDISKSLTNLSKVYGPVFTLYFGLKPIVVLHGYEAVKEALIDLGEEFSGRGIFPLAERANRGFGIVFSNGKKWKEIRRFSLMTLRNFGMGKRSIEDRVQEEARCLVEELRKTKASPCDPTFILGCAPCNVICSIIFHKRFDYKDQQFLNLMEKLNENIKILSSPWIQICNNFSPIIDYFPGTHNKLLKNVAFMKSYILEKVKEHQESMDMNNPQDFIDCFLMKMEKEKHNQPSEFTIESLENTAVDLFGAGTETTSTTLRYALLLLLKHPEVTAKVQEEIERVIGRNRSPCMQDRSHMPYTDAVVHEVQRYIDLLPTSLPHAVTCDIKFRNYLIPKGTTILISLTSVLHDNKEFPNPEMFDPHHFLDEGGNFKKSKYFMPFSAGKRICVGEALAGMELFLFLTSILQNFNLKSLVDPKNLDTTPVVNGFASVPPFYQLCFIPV

Structure (SMILES) | AC50 [3] | EC50 (Protein RecA) | AC50 (Cytochrome P450 2D6) | other results
O=[N+]([O-])c1ccc(Sc2nc(O)c3ccccc3n2)c([N+](=O)[O-])c1 | 16.9 µM (active) | 6.05 µM (active) |  | EC50 [1]: 1.48 µM (active); EC50 [2]: > 60 µM (not active)
FC(F)(F)c1cccc(NC(S)=Nc2ccc(Cl)cc2Cl)c1 |  |  | 7.94 µM (inconclusive) | EC50 [4]: 4.48 µM (active); EC50 (Streptokinase A): > 150 µM (not active); EC50 (Streptococcus): 46.8 µM (active); AC50 (Cytochrome P450 3A4): 28.2 µM (inconclusive); AC50 (Cytochrome P450 2C9): 31.6 µM (inconclusive)
CC(=O)Oc1ccc(OC(C)=O)c(SCCCCCCl)c1 |  |  |  | EC50 [5]: 7.65 µM (active); AC50 [6]: 2.58 µM (active); AC50 [7]: 7.84 µM (active)
CC(C)CN1C(=O)c2ccc(C(=O)Nc3ccccc3C(=O)O)cc2C1=O |  |  |  | AC50 [8]: > 100 µM (inactive)
CCOc1cc(C(c2c(C)n[nH]c2O)c2c(C)n[nH]c2O)cc(Cl)c1O | > 380 µM (inactive) | 4.74 µM (active) |  | 
Cc1cc(NC(=O)c2ccc(S(=O)(=O)Nc3ccccc3)cc2)no1 |  |  | 25.1 µM (inconclusive) | 
CCc1cc2c(nc1CC)CCN(CC/C(C)=N/O[C@@H](C)c1cn([C@@H]3COC[C@@H]3O)nn1)C2 |  |  | 2.51 µM (inconclusive) | 
CCc1ccccc1N1C(=O)CC(N2CCc3ccccc32)C1=O (stereo not given) |  |  |  | AC50 [8]: 2.81 µM (active)
Cc1nc2nc(C)c(CCC(=O)NCCCN3CCN(c4cccc(Cl)c4)CC3)c(C)n2n1 |  |  | 12.6 µM (inconclusive) | AC50 (Cytochrome P450 2C19): 25.1 µM (inconclusive)
COc1ccc(C2C(C#N)=C(N)Oc3[nH]nc(C)c32)cc1Cn1cc([N+](=O)[O-])cn1 (stereo not given) | 5.32 µM (active) | 3.11 µM (active) |  | 
CCN(CC)CCc1nc(-c2ccccc2)no1 |  |  | 6.31 µM (inconclusive) | 
Cc1ccc(C(=O)NNc2ncnc3ccccc23)cc1 |  |  |  | EC50 [9]: 6.62 µM (active); EC50 (H4): > 120 µM (not active)
O=[N+]([O-])c1ccc(-c2cn(-c3ccccc3F)c(=S)[nH]2)cc1 |  |  |  | AC50 [8]: > 100 µM (inactive)
Cc1ccc(SCc2cc(=O)n(C)[nH]2)cc1 | 13.3 µM (active) | 5.29 µM (active) |  | 
O=C(Oc1ccc(C(=S)N2CCOCC2)cc1)c1ccc([N+](=O)[O-])cc1[N+](=O)[O-] | 18.6 µM (active) | 10.6 µM (active) |  | 
Nc1n[nH]c(SCC(=O)Nc2ccccc2Sc2ccc(Cl)cc2)n1 |  |  | 12.6 µM (inconclusive) | 

Structure (SMILES) | AC50 [3] | EC50 (Protein RecA) | AC50 (Cytochrome P450 2D6) | other results
O=[N+]([O-])c1cc(-c2ccc(C(=S)N3CCOCC3)o2)ccc1Cl | 39.9 µM (active) | 10.2 µM (active) |  | 
Cc1cc(NC(=O)Nc2ccc(N(C)C)cc2)c2cc(F)cc(F)c2n1 |  |  | 31.6 µM (inconclusive) | 
Nn1c(S)nnc1Cc1ccccc1 |  |  |  | AC50 [8]: 0.134 µM (active)
N=C(N)SCc1nc(-c2ccc(Cl)cc2)no1 |  |  | 3.16 µM (inconclusive) | AC50 (Cytochrome P450 3A4): 5.01 µM (inconclusive)
N#CCC(=O)Nc1ccc(C(=O)NCc2cccc(Cl)c2)cc1 |  |  |  | AC50 [8]: 9.8 µM (active)
COc1ccc(OC)c2nc(O)c(CCNS(=O)(=O)c3ccc(Cl)cc3)cc12 |  |  | 31.6 µM (inconclusive) | AC50 (Cytochrome P450 2C19): 8.91 µM (inconclusive); AC50 (Cytochrome P450 3A4): 5.62 µM (inconclusive)
N#CC(C#N)=NNc1ccc(S(=O)(=O)N2CCCCC2)cc1 | 4.03 µM (active) | 9.78 µM (active) |  | 
COc1ccc(S(=O)(=O)N2CCN(CC(=O)Nc3cc(OC)cc(OC)c3)CC2)cc1 |  |  | 20 µM (inconclusive) | 
COc1cc(/C=C2/C(=O)NN(c3ccccc3)C2=O)cc(Br)c1O |  |  |  | AC50 [8]: 0.484 µM (active)
CCCC1C(C#N)=C(N)Oc2[nH]nc(C(C)(C)C)c21 (stereo not given) | 2.36 µM (active) | 0.504 µM (active) |  | 
O=C(CSc1nnc(-c2ccc(Cl)cc2)o1)N1CCOCC1 |  |  |  | EC50 [9]: 46.3 µM (active); EC50 (H4): 11.8 µM (active)
CCCCOc1cc(C(=O)NCCN(CC)CC)c2ccccc2n1 [DIBUCAINE] |  |  | 7.94 µM (inconclusive) | 
COc1cccc(-c2[nH]nc3c2C(c2ccc(C)o2)C(C#N)=C(N)O3)c1 (stereo not given) | 8.74 µM (active) | 1.53 µM (active) |  | AC50 (Cytochrome P450 2C9): 15.8 µM (inconclusive)
COc1cccc(CC(C(=O)Nc2cc(C)ccc2C)c2nn[nH]n2)c1OC (stereo not given) |  |  | 15.8 µM (inconclusive) | AC50 (Cytochrome P450 3A4): 25.1 µM (inconclusive)
CCC(=O)c1cn(CC(=O)Nc2cccc(C)c2C)c2ccccc12 |  |  |  | AC50 [6]: 1.52 µM (active); AC50 [7]: 3.44 µM (active)
CC(C)(C)c1[nH]nc2c1C(Cc1ccccc1)C(C#N)=C(N)O2 (stereo not given) | 13.8 µM (active) | 2.31 µM (active) |  | 
